Tests used:
[1] = Hepatic microsomal metabolic stability; details: mouse
Experimental: […] Samples were taken and analyzed at time points 0, 15, 30, 45 and 60 minutes during the incubation. The reaction was terminated by adding an amount of acetonitrile solution containing the internal standard. […] The residual percentage, half-life, intrinsic clearance, amplified clearance, hepatic clearance and hepatic extraction ratio were determined. The entire experiment was performed in triplicate. All data calculations were performed by Microsoft Excel software. Peak areas were detected by extracting the ionic spectrum. The in vitro half-life (t1/2) of the parent compound was detected by fitting the natural logarithm of the percentage elimination of the parent compound linearly to time.
The in vitro intrinsic clearance (in µL/min/mg protein) was calculated using the following equation: in vitro CLint = kV/N
The amplified clearance (in mL/min/kg) was calculated using the following equation: Amplified CLint = kV/N × the amplification factor [formula]
The hepatic clearance (in mL/min/kg) was calculated using the following equation: The predicted hepatic CLH = (Q×Fu/RB×theamplifiedCLint)/([…]) [formula] • V = the incubation volume per well (0.2 mL); • N = the total amount of protein (mg) • Q = the hepatic blood flow (mL/min/kg) • Fu = the plasma free rate (assumed to be 1) • RB = the whole blood partition coefficient (assumed to be 1)
The hepatic […] was calculated using the following equation: The hepatic extraction ratio(ER) = (thepredictedhepaticCLH)/Q [formula]

platelets = assay: In vivo platelet toxicity test; parameters: species or system C57 mice
Experimental: All drugs were mixed in 85% physiological saline, 5% DMSO (Sigma, D8418) and 10% Solutol HS 15 (Sigma, 42966), and administered to mice by intraperitoneal (i.p.) injection. To treat the bleomycin-injured young mice, A13 (2 mg/kg), A13bGa1 (5 mg/kg), or an empty vehicle control was administered three consecutive days per week for four weeks. A1331852 (abbreviated as A13) was purchased from MCE.
A single administration of A13 or A13bG was performed. Female 5-6 week old C57 mice were treated with a single intraperitoneal injection. A13 and A13bG were administered in three different dose groups of 2, 5, and 20 mg/kg. Approximately 50 µl of blood was collected from each mouse at different time points into the EDTA tubes (RAM Scientific) by means of inner canthal blood extraction, and analyzed using a haematology analyzer for a blood routine examination and a platelet counting. Multiple administrations of A13 or A13bG were performed. Female 5-6 week old C57 mice were treated with multiple intraperitoneal injections. A13 and A13bG were administered in three different dose groups of 2, 5 and 20 mg/kg, three consecutive days per week, followed by a 4-day withdrawal for 3 weeks. The time points of administration were in the afternoon of days 0, 1, 2, 7, 8, 9, 14, 15, and 16, and the time points of blood collection and testing were in the morning of days 1, 3, 5, 8, 10, 12, 15, 17, and 19, respectively.
For a blood routine examination, 50 µl of fresh blood was collected from each mouse and immediately mixed with EDTA. Blood samples were analyzed by Celltac Alpha MEK-6400 series haematology analyzer (Nihon Kohden, MEK-6400). Data were expressed as the number of different blood cells or platelets per µl of blood. For the serum biochemical analysis, the blood samples were collected, coagulated for 2 hours at room temperature or overnight at 4°C, and then centrifuged (1000 g, 10 minutes) to obtain serum. A 200 µl of serum was aliquoted and analyzed for alanine aminotransferase (ALT), aspartate aminotransferase (AST), uric acid (UA), and creatinine (CREA) by a chemistry analyzer (Mindray, BS-350E).

[2] = tested on: senescent HEF, HELF, BJ, A549, HUVEC and MRC5 cells; assay: Cell viability test (CCK-8) on induced senescent cell models, A13 vs A13bGa1; details: Figures 3B-3G
Experimental: (§1) Briefly, the human embryonic skin tissues and the fetal lung tissues obtained from the aborted tissues with the patient's informed consent were minced with the forcep and incubated in 1 mg/ml collagenase IV at 37°C for 1-2 hours. After the enzyme treatment, the cells were collected by centrifugation and resuspended in HEF medium (Dulbecco's modified Eagle medium (DMEM, Gibco) containing 10% fetal bovine serum (FBS, Ausbian), 1% GlutaMAX (Gibco), 1% non-essential amino acids (NEAA, Gibco) and 1% penicillin/streptomycin (Gibco). Gibco). Cells were plated on the 10 cm tissue culture dishes and grown in 10% FBS DMEM. […] They were passaged and cryopreserved according to Lonza's method. A549 cells, BJ cells and MRC5 cells were purchased from ATCC and cultured in DMEM medium containing 10% fetal bovine serum (FBS, Ausbian), and 1% penicillin/streptomycin (Gibco).
(§2) Cell Counting Kit-8 (CCK-8) assay was used to assess the cell viability. The senescent and non-senescent cells or chondrocytes were seeded into the 96-well plates and cultured overnight. The cells were then treated with control (0.05% DMSO) or different concentrations of the drug to be tested. […] Absorbance was measured at the wavelength of 450 nm.

[3] = Hepatic microsomal metabolic stability
[4] = Hepatic microsomal metabolic stability; remark: listed apart in the source
[5] = Plasma metabolic stability; format: in vitro ADME, human; details: Huamn plasma, 10 µM, 120 minutes
Experimental: Termination of the reaction was accomplished by the addition of 3x volume of acetonitrile and centrifugation at 16000 g for 20 minutes. The supernatant was taken for a LC-MS/MS analysis. The chromatographic column: Waters XSelect HSS T3; the flow rate: 500 µL/min; the eluent: A, water (0.1% formic acid); B, acetonitrile (0.1% formic acid); the gradient elution: 0-1.5 min, 5% B, 1.5-9 min, 5%-80% B, 9-12 min, 80%-100% B, 12-14 min, 100% B, 14-14.3 min, 100%-5% B, 14.3-15 min, 5% B.

[6] = tested on: normal cells (HEF, HELF, BJ, A549, HUVEC, MRC5); assay: Cell viability test (CCK-8) on normal uninduced cells, A13 vs A13bGa1; details: compared with parent compound A13
Experimental: as §1, §2

SMILES: Cc1c(-c2ccc(N3CCc4cccc(C(=O)Nc5nc6ccccc6s5)c4C3)nc2C(=O)OCc2ccc(O[C@@H]3O[C@H](CO)[C@H](O)[C@H](O)[C@H]3O)c([N+](=O)[O-])c2)cnn1CC12CC3CC(CC(C3)C1)C2 [A13bGa1]
- The hepatic extraction ratio (E) [1]: 0.40
- CLint scaled at 1 µM ([1]; microsomes): 36.2 mL/min/kg
- microsomal CLint at 1 µM ([1]; microsomes): 13.8 µL/min/mg
- toxic effects on the platelets (platelets; multiple rounds i.p., 3 consecutive days per week for 3 weeks, 2, 5 and 20 mg/kg): significantly reduced
- platelet-destroying effect (platelets; single intraperitoneal administration, 20 mg/kg): strong platelet-destroying effect only at the higher dose of 20 mg/kg
- toxicity to the platelets (platelets; single intraperitoneal administration, 2, 5 and 20 mg/kg): significantly less toxic to the platelets than the parent compound A13
- overall killing activity on the senescent cells compared with parent compound [2]: somewhat reduced compared with that of the parent compound A13
- killing of the senescent cells ([2]; skin-derived fibroblasts, lung-derived cells, vascular endothelial-derived cells): highly efficient and selective in killing the senescent cells
- The hepatic extraction ratio (E) ([3]; Rat): 0.34
- CLint scaled at 1 µM ([3]; rat, microsomes): 18.7 mL/min/kg
- microsomal CLint at 1 µM ([3]; rat, microsomes): 15.8 µL/min/mg
- The hepatic extraction ratio (E) ([4]; Monkey): 0.69
- microsomal CLint at 1 µM ([4]; monkey, microsomes): 65.3 µL/min/mg
- CLint scaled at 1 µM ([4]; monkey, microsomes, The amplified intrinsic clearance Cl int): 9800 mL/min/kg
- CLint scaled at 1 µM ([4]; monkey, microsomes, The predicted intrinsic hepatic clearance Cl int): 30.2 mL/min/kg
- The peak area after normalisation at minute 120, Initial drug A13bGa1 [5]: 99.93%
- The peak area after normalisation at minute 120, peak 1 oxidative dehydrogenation ([5]; metabolite peak): 0.07%
- toxicity to the normal cells [6]: greatly reduced

Source: patent EP4574175A1, “PRODRUG FOR ANTI-AGING RELATED DISEASES AND USE METHOD THEREFOR” (BEIJING SUNCELL BIO-MEDICAL CO., LTD., priority 2022, dated 2024)
